Experimental data: PubChem BioAssay (NCI)
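How tested: cells in 96-well plates exposed to compound for 48 hours at five concentrations. GI50: concentration for 50% inhibition of growth. TGI is the concentration that stops growth completely.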

Tests used:
Assay in all cases: NCI tumour cell line growth inhibition, 48 h
[1] = tested on: MDA-MB-231 breast
[2] = tested on: HL-60(TB) leukemia
[3] = tested on: SR leukemia
[4] = tested on: SK-MEL-5 melanoma
[5] = tested on: SK-OV-3 ovarian
[6] = tested on: UO-31 renal
[7] = tested on: K-562 leukemia
[8] = tested on: OVCAR-4 ovarian
[9] = tested on: BT-549 breast
[10] = tested on: OVCAR-8 ovarian
[11] = tested on: HCC-2998 colon
[12] = tested on: NCI-H23 lung
[13] = tested on: SNB-75 CNS
[14] = tested on: PC-3 prostate
[15] = tested on: HS 578T breast
[16] = tested on: DU-145 prostate
[17] = tested on: HCT-116 colon
[18] = tested on: SNB-19 CNS
[19] = tested on: T-47D breast
[20] = tested on: CCRF-CEM leukemia
[21] = tested on: MALME-3M melanoma
[22] = tested on: SK-MEL-2 melanoma
[23] = tested on: SW-620 colon
[24] = tested on: NCI-H226 lung
[25] = tested on: MOLT-4 leukemia
[26] = tested on: M14 melanoma
[27] = tested on: MDA-MB-435
[28] = tested on: A549 NSCLC
[29] = tested on: LOX IMVI melanoma
[30] = tested on: HT29 colon
[31] = tested on: SF-539 CNS
[32] = tested on: COLO 205 colon
[33] = tested on: KM12 colon
[34] = tested on: HCT-15 colon
[35] = tested on: EKVX NSCLC
[36] = tested on: CAKI-1 renal
[37] = tested on: IGROV1 ovarian
[38] = tested on: 786-0 renal
[39] = tested on: UACC-62 melanoma
[40] = tested on: NCI-H460 lung
[41] = tested on: NCI-H522 lung
[42] = tested on: HOP-62 NSCLC
[43] = tested on: OVCAR-5 ovarian
[44] = tested on: A498 renal
[45] = tested on: SK-MEL-28 melanoma
[46] = tested on: SF-268 CNS
[47] = tested on: OVCAR-3 ovarian
[48] = tested on: MCF7 breast
[49] = tested on: TK-10 renal
[50] = tested on: NCI/ADR-RES ovarian
[51] = tested on: RPMI-8226 leukemia
[52] = tested on: SN12C renal
[53] = tested on: SF-295 CNS
[54] = tested on: ACHN renal
[55] = tested on: U251 CNS
[56] = tested on: UACC-257 melanoma
[57] = tested on: HOP-92 NSCLC

COc1cccc(C2C3=C(COC3=O)N(CCO)c3cc4c(cc32)CCC4)c1 (stereo not drawn)
GI50 [1]: 0.142 µM
TGI [1]: 1.07 µM
GI50 [2]: 0.111 µM
TGI [2]: 0.314 µM
GI50 [3]: 0.015 µM
TGI [3]: 0.165 µM
GI50 [4]: 0.0204 µM
TGI [4]: 0.436 µM
GI50 [5]: 0.0663 µM
GI50 [6]: 0.0192 µM
TGI [6]: 1.44 µM
GI50 [7]: 0.0279 µM
TGI [7]: 8.81 µM
GI50 [8]: 0.114 µM
TGI [8]: > 50 µM
GI50 [9]: 0.0819 µM
TGI [9]: 1.19 µM
GI50 [10]: 0.098 µM
TGI [10]: > 17.1 µM
GI50 [11]: 0.0795 µM
TGI [11]: 1.31 µM
GI50 [12]: 0.0604 µM
TGI [12]: 4.02 µM
GI50 [13]: 0.0236 µM
TGI [13]: 0.397 µM
GI50 [14]: 0.0577 µM
TGI [14]: > 50 µM
GI50 [15]: 0.0285 µM
TGI [15]: 32.4 µM
GI50 [16]: 0.0884 µM
TGI [16]: 0.321 µM
GI50 [17]: 0.0526 µM
TGI [17]: 0.692 µM
GI50 [18]: 0.0468 µM
TGI [18]: 0.321 µM
GI50 [19]: 0.0832 µM
TGI [19]: 36.6 µM
GI50 [20]: 0.122 µM
TGI [20]: > 50 µM
GI50 [21]: 0.915 µM
TGI [21]: > 50 µM
GI50 [22]: 0.0255 µM
TGI [22]: 0.239 µM
GI50 [23]: 0.0252 µM
TGI [23]: > 50 µM
GI50 [24]: 0.274 µM
TGI [24]: > 27.8 µM
GI50 [25]: 0.162 µM
TGI [25]: 1.94 µM
GI50 [26]: 0.0358 µM
TGI [26]: 0.208 µM
GI50 [27]: 0.0131 µM
TGI [27]: 0.0334 µM
GI50 [28]: 0.0982 µM
GI50 [29]: 0.0934 µM
TGI [29]: > 37.1 µM
GI50 [30]: 0.042 µM
TGI [30]: 0.156 µM
GI50 [31]: 0.0457 µM
GI50 [32]: 0.0584 µM
TGI [32]: 0.198 µM
GI50 [33]: 0.0219 µM
TGI [33]: 0.443 µM
GI50 [34]: 0.122 µM
TGI [34]: > 22.2 µM
GI50 [35]: 0.133 µM
TGI [35]: > 50 µM
GI50 [36]: 0.132 µM
TGI [36]: > 50 µM
GI50 [37]: 0.0169 µM
TGI [37]: 0.0692 µM
GI50 [38]: 0.0731 µM
TGI [38]: 10.8 µM
GI50 [39]: 34.2 µM
TGI [39]: > 50 µM
GI50 [40]: 0.0426 µM
TGI [40]: 0.319 µM
GI50 [41]: 0.00644 µM
TGI [41]: 0.0165 µM
GI50 [42]: 0.147 µM
TGI [42]: > 16 µM
GI50 [43]: 0.344 µM
TGI [43]: > 50 µM
GI50 [44]: 0.0154 µM
TGI [44]: 0.0483 µM
GI50 [45]: 13.4 µM
TGI [45]: > 50 µM
GI50 [46]: 0.0731 µM
TGI [46]: 5.93 µM
GI50 [47]: 0.018 µM
TGI [47]: 0.0591 µM
GI50 [48]: 0.0193 µM
TGI [48]: > 18.1 µM
GI50 [49]: 2.13 µM
TGI [49]: > 50 µM
GI50 [50]: 0.0556 µM
TGI [50]: 0.23 µM
GI50 [51]: 0.127 µM
TGI [51]: 11.6 µM
GI50 [52]: 0.269 µM
TGI [52]: > 32.6 µM
GI50 [53]: 0.0148 µM
TGI [53]: 0.543 µM
GI50 [54]: 0.0622 µM
TGI [54]: > 50 µM
GI50 [55]: 0.143 µM
TGI [55]: 11.5 µM
GI50 [56]: 32.6 µM
TGI [56]: > 50 µM

OCCC#Cc1ccccc1C#Cc1ccccc1
GI50 [1]: 3.41 µM
TGI [1]: 16.1 µM
GI50 [4]: 12 µM
TGI [4]: 25.3 µM
GI50 [5]: 17.3 µM
TGI [5]: 39.4 µM
GI50 [6]: 34.3 µM
TGI [6]: > 100 µM
GI50 [7]: 11 µM
TGI [7]: > 100 µM
GI50 [8]: 24.1 µM
TGI [8]: 72.4 µM
GI50 [9]: 8.98 µM
TGI [9]: 22.3 µM
GI50 [10]: 30.4 µM
TGI [10]: 66.9 µM
GI50 [11]: 19.1 µM
TGI [11]: 45 µM
GI50 [12]: 18.2 µM
TGI [12]: 39.9 µM
GI50 [13]: 19.8 µM
TGI [13]: 53.4 µM
GI50 [14]: 13.7 µM
TGI [14]: 35.5 µM
GI50 [15]: 11.9 µM
TGI [15]: 33.3 µM
GI50 [16]: 12.5 µM
TGI [16]: 26.5 µM
GI50 [17]: 17.5 µM
TGI [17]: 33.6 µM
GI50 [57]: 3.48 µM
TGI [57]: 16.7 µM
GI50 [18]: 28.1 µM
TGI [18]: > 100 µM
GI50 [19]: 39.3 µM
TGI [19]: > 100 µM
GI50 [20]: 25.9 µM
TGI [20]: > 100 µM
GI50 [21]: 14 µM
TGI [21]: 27.1 µM
GI50 [22]: 40.6 µM
TGI [22]: > 100 µM
GI50 [23]: 13.4 µM
TGI [23]: 28.2 µM
GI50 [24]: 15.2 µM
TGI [24]: 33.2 µM
GI50 [25]: 9.84 µM
TGI [25]: 51.9 µM
GI50 [26]: 16 µM
TGI [26]: 31.6 µM
GI50 [27]: 11.4 µM
TGI [27]: 23.5 µM
GI50 [28]: 36.3 µM
TGI [28]: 83.2 µM
GI50 [30]: 18 µM
TGI [30]: > 100 µM
GI50 [31]: 12.7 µM
TGI [31]: 27 µM
GI50 [32]: 19.4 µM
TGI [32]: 38 µM
GI50 [33]: 7.18 µM
TGI [33]: 17.2 µM
GI50 [34]: 11.6 µM
TGI [34]: 24.8 µM
GI50 [35]: 11.3 µM
TGI [35]: 24.3 µM
GI50 [36]: 12.6 µM
TGI [36]: 25.2 µM
GI50 [37]: 33.4 µM
TGI [37]: > 100 µM
GI50 [38]: 16.1 µM
TGI [38]: 31.3 µM
GI50 [39]: 11.9 µM
TGI [39]: 24.4 µM
GI50 [40]: 21.5 µM
TGI [40]: 50.7 µM
GI50 [41]: 32.1 µM
TGI [41]: > 100 µM
GI50 [42]: 18.7 µM
TGI [42]: 33.9 µM
GI50 [43]: 16.9 µM
TGI [43]: 50.7 µM
GI50 [45]: 21.7 µM
TGI [45]: 60.9 µM
GI50 [46]: 16.5 µM
TGI [46]: 33.9 µM
GI50 [48]: 22.7 µM
TGI [48]: 46.5 µM
GI50 [49]: 11.3 µM
TGI [49]: 23.4 µM
GI50 [50]: 17.9 µM
TGI [50]: 53.6 µM
GI50 [51]: 12.4 µM
TGI [51]: 41.8 µM
GI50 [52]: 12.5 µM
TGI [52]: 26.8 µM
GI50 [53]: 5.47 µM
TGI [53]: 19.8 µM
GI50 [54]: 17.2 µM
TGI [54]: 36.4 µM
GI50 [55]: 35 µM
TGI [55]: > 100 µM
GI50 [56]: 22.4 µM
TGI [56]: 45.9 µM
